Experimental data taken from publication PMC10102062, “Effects of DPTQ, a novel positive allosteric modulator of the dopamine D1 receptor, on spontaneous eye blink rate and spatial working memory in the nonhuman primate” (Psychopharmacology, 2023).
pKi: −log10 of the molar value.

Tests used:
rhesus monkeys = experiment: Spontaneous eye blink rate, cumulative dosing; type: in vivo, rhesus monkey
Excerpt: Eleven 5–6-year-old, male rhesus monkeys (Chengdu Ping, An Animal Breeding and Research Base, Sichuan Province, China) with an average weight of 4.83 kg were included in the study. The animals were randomly divided into three groups, DPTQ higher cumulative dose group (n = 4); DPTQ lower cumulative dose group (n = 3); and vehicle (20% Captisol (CyDex Pharmaceuticals, Inc., KS) in NaPO4 buffer) group (n = 4). The D1 agonist SKF82958 was included as a positive control; the results for this compound (not shown here) were recently published together with data for a different D1PAM (DETQ, see Bruns et al. [2018]). The D1 selective antagonist SCH39166 hydrobromide (Cat No.: 2299, Batch No.: 3A/129719) was purchased from Tocris, MN, and was prepared in Millipore pure water with the injection volume 0.2 ml/kg. The D1 antagonist was dosed 15 min before vehicle or DPTQ (n = 4 animals per group).
Spontaneous eye blinking rate was measured during observational experiments conducted in a specially constructed monkey chair (Mason et al. [2019]). A U-shaped neck plate that helped to fixate the orientation of the head was used to facilitate observation of eye blink rate response. A compact video camera (Panasonic/wv-cp480/CH) on a tripod was positioned in front of the seated monkey. Two camera images were combined by video collector (Color QUAD system) and transferred to the EthoVision software (Noldus, Leesburg, VA) on the computer for on-line viewing and recording.
Two weeks before testing, monkeys were trained daily to sit in the monkey chair for two 2-h periods with food reward. During post-training test sessions conducted between 9:00 am and 4:30 pm every day, each monkey was studied for nine consecutive 15-min components. Each 15-min block consisted of a 10-min habituation period followed by a 5-min period during which eye blinking was counted. […] Observers blind to the treatment conditions later scored each 5-min videotaped session. An eye blink was defined as a visible, rapid opening and closing of the eyelid. Two observers independently confirmed the measurement with reliability > 90%.
The effects of different D1 ligands on spontaneous eye blink rate were studied by a cumulative dosing procedure (Jutikiewicz and Bergman 2004). Active compound or vehicle (Captisol 20% w/v NaPO4 buffer) was administered after obtaining two baseline eye blink recordings. The ligand was given in random order to different monkeys of each group as described above. To study dose response and time course, incremental doses of DPTQ were administrated at the end of 15-min components of each test session.
DPTQ (free base, see Hao et al. [2019]) was supplied by Eli Lilly Company. Captisol (Lot No.: NC-04A-05034) was prepared as follows: Captisol 20% w/v NaPO4 buffer 25 mM, pH 8. The injection volume for DPTQ was 0.5 ml/kg IM. DPTQ at 0.1 mg/kg, 0.5 mg/kg, and 1 mg/kg were dosed as clear solution, while the 5 mg/kg and 10 mg/kg doses were formulated as fine suspensions. The above vehicle solution was stored at 4℃ in a refrigerator and restored to room temperature before use. When preparing DPTQ fresh daily, a portion of the vehicle (20% Captisol) was added to the compound and stirred to wet, followed by addition of the remainder of the vehicle and mixing until the solution became homogeneous. The suspension was then sonicated on an ice bath for 40 min to reduce particle size. Animals were dosed while in the chair.
Results for each monkey were expressed as the rate of eye blinking (blinks per minute) averaged over each 5-min testing epoch. The effects of vehicle and D1 PAM on eye blinking were averaged for each group of monkeys and expressed as mean ± SE. The effects of DPTQ and vehicle were analyzed with two-way ANOVA (D1 PAM and time) followed by Bonferroni post hoc test (GraphPad Prism, San Diego CA).

D2 receptor = D2 receptor (Homo sapiens, UniProt P14416); experiment: Broad screening binding study with 3[H]-raclopride; details: 3[H]-raclopride as ligand; unpublished findings
Chain of D2 receptor (P14416 whole entry): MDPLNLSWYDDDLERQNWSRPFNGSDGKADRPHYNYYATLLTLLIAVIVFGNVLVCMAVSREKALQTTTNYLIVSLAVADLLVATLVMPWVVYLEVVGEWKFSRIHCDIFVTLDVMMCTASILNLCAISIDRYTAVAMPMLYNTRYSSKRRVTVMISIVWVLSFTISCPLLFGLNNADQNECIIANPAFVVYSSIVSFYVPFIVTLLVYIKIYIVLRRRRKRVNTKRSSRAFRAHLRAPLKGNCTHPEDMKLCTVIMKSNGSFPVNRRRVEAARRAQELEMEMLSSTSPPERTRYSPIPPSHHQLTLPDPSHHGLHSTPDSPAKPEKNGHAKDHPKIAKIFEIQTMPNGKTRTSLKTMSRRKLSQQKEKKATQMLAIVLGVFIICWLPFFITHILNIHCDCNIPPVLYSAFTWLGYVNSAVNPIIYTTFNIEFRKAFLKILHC

SMILES: C[C@H]1c2cccc(CC(C)(C)O)c2C[C@H](CO)N1C(=O)Cc1c(Cl)cccc1Cl [DPTQ]
- Increase in eye blink rate after SCH39166 pretreatment (rhesus monkeys; DPTQ 0.5, 5, 10 mg/kg cumulative, SCH39166 0.03 mg/kg IM 15 min before): small, non-significant
- Oral movement (rhesus monkeys; both high and lower cumulative doses, clear effect only at higher dose at 30 min): some degree of oral movement such as tongue protrusion
- Spontaneous eye blink rate vs vehicle (rhesus monkeys; higher cumulative dose 0.5, 5 and 10 mg/kg IM, at 30, 45, 60 and 75 min): significant increases
- Spontaneous eye blink rate vs vehicle (rhesus monkeys; lower cumulative dose 0.1, 1 and 5 mg/kg IM, only at 45 and 60 min): small but significant
- pKi (D2 receptor): < 5.25
